# Tested on: MSCs
# Test: Whole genome expression analysis (Illumina microarray) of treated MSCs
# Type: cell-based, Human
# Conditions: DFO versus Bas
# Protocol: MSCs were seeded in T25 flasks at 5000 cells/cm^2 and allowed to attach overnight in proliferation medium. […] After 48 hours, RNA was isolated as described above. From 500 ng of RNA, cRNA was synthesized using the Illumina TotalPrep RNA amplification Kit (Ambion), according to the manufacturer's protocol and the quality of RNA and cRNA was verified on a Bioanalyzer 2100 (Agilent). Microarrays were performed using Illumina HT-12 v4 expression Beadchips, according to the manufacturer's protocol. Briefly, 750 ng of cRNA was hybridized on the array overnight after which the array was washed and blocked. Then, by addition of streptavidin Cy-3 a fluorescent signal was developed. Arrays were scanned on an Illumina iScan reader and raw intensity values were background corrected in GenomeStudio (Illumina). Further data processing and statistical testing were performed with R and Bioconductor statistical software (www.bioconductor.org), using package lumi. Raw intensity values were transformed using variance stabilization and a quantile normalization was performed. A linear modelling approach with empirical Bayesian methods, as implemented in Limma package (54), was applied for differential expression analysis of the resulting probe-level expression values. A gene list, containing only those genes with an absolute 1.5-fold change between different treatments, was uploaded to Ingenuity Pathway Analysis (IPA) software and used for core analysis. Pathways or networks with a p-value of 0.05 were considered statistically significant.
compound,measurement,setting,value
"CC(=O)N(O)CCCCCNC(=O)CCC(=O)N(O)CCCCCNC(=O)CCC(=O)N(O)CCCCCN [DFO, reference compound]",logFC(D142_ DFO - D142_BAS),ProbeID ILMN_1699644,"2,52"
same,logFC(D142_ DFO - D142_BAS) RRAGD,ProbeID ILMN_1699772,"2,43"
same,logFC(D142_ DFO - D142_BAS) QPRT,ProbeID ILMN_1700268,"-2,44"
same,logFC(D142_ DFO - D142_BAS) SULF1,ProbeID ILMN_1702363,"-2,42"
same,logFC(D142_ DFO - D142_BAS) TNFRSF19,ProbeID ILMN_1704154,"-2,00"
same,logFC(D142_ DFO - D142_BAS) SLC6A10P,ProbeID ILMN_1704446,"2,82"
same,logFC(D142_ DFO - D142_BAS) PHGDH,ProbeID ILMN_1704537,"2,18"
same,logFC(D142_ DFO - D142_BAS) ANGPTL4,ProbeID ILMN_1707727,"6,19"
same,logFC(D142_ DFO - D142_BAS) TP53INP1,ProbeID ILMN_1714108,"2,66"
same,logFC(D142_ DFO - D142_BAS) NNMT,ProbeID ILMN_1715508,"-2,16"
same,logFC(D142_ DFO - D142_BAS) NGF,ProbeID ILMN_1716608,"2,73"
same,logFC(D142_ DFO - D142_BAS) C5orf46,ProbeID ILMN_1718866,"2,59"
same,logFC(D142_ DFO - D142_BAS) BNIP3L,ProbeID ILMN_1718961,"2,24"
same,logFC(D142_ DFO - D142_BAS) SLC7A5,ProbeID ILMN_1720373,"3,21"
same,logFC(D142_ DFO - D142_BAS) JMJD1A,ProbeID ILMN_1722532,"2,13"
same,logFC(D142_ DFO - D142_BAS) HK2,ProbeID ILMN_1723486,"2,21"
same,logFC(D142_ DFO - D142_BAS) BNIP3,ProbeID ILMN_1724658,"3,37"
same,logFC(D142_ DFO - D142_BAS) CTHRC1,ProbeID ILMN_1725090,"-2,13"
same,logFC(D142_ DFO - D142_BAS) CA9,ProbeID ILMN_1725139,"3,31"
same,logFC(D142_ DFO - D142_BAS) SLC3A2,ProbeID ILMN_1726456,"2,31"
same,logFC(D142_ DFO - D142_BAS) OLFML3,ProbeID ILMN_1727532,"-2,91"
same,logFC(D142_ DFO - D142_BAS) PRC1,ProbeID ILMN_1728934,"-2,66"
same,logFC(D142_ DFO - D142_BAS) STEAP1,ProbeID ILMN_1733094,"-2,15"
same,logFC(D142_ DFO - D142_BAS) COL12A1,ProbeID ILMN_1733756,"-2,56"
same,logFC(D142_ DFO - D142_BAS) PPP1R3C,ProbeID ILMN_1736670,"2,33"
same,logFC(D142_ DFO - D142_BAS) TMEM119,ProbeID ILMN_1738116,"-3,83"
same,logFC(D142_ DFO - D142_BAS) ULBP1,ProbeID ILMN_1738407,"2,07"
same,logFC(D142_ DFO - D142_BAS) PLAT,ProbeID ILMN_1738742,"2,03"
same,logFC(D142_ DFO - D142_BAS) TUBA1A,ProbeID ILMN_1742981,"-2,06"
same,logFC(D142_ DFO - D142_BAS) EGR2,ProbeID ILMN_1743199,"2,34"
same,logFC(D142_ DFO - D142_BAS) C1QTNF5,ProbeID ILMN_1744487,"-2,69"
same,logFC(D142_ DFO - D142_BAS) ERO1L,ProbeID ILMN_1744963,"3,58"
same,logFC(D142_ DFO - D142_BAS) CEP55,ProbeID ILMN_1747016,"-2,32"
same,logFC(D142_ DFO - D142_BAS) EGLN1,ProbeID ILMN_1749892,"2,28"
same,logFC(D142_ DFO - D142_BAS) IGFBP5,ProbeID ILMN_1750324,"2,71"
same,logFC(D142_ DFO - D142_BAS) SESN2,ProbeID ILMN_1751598,"2,18"
same,logFC(D142_ DFO - D142_BAS) PGK1,ProbeID ILMN_1755749,"2,16"
same,logFC(D142_ DFO - D142_BAS) ALDOC,ProbeID ILMN_1755974,"2,33"
same,logFC(D142_ DFO - D142_BAS) ANKRD37,ProbeID ILMN_1756417,"3,40"
same,logFC(D142_ DFO - D142_BAS) COQ2,ProbeID ILMN_1756572,"-2,03"
same,logFC(D142_ DFO - D142_BAS) NDUFA4L2,ProbeID ILMN_1756573,"5,66"
same,logFC(D142_ DFO - D142_BAS) STC1,ProbeID ILMN_1758164,"3,77"
same,logFC(D142_ DFO - D142_BAS) HIST1H2BD,ProbeID ILMN_1758623,"2,40"
same,logFC(D142_ DFO - D142_BAS) FAM107B,ProbeID ILMN_1758672,"2,18"
same,logFC(D142_ DFO - D142_BAS) LOC441019,ProbeID ILMN_1761281,"2,16"
same,logFC(D142_ DFO - D142_BAS) AK3L1,ProbeID ILMN_1764090,"2,74"
same,logFC(D142_ DFO - D142_BAS) OLFML2B,ProbeID ILMN_1765557,"-3,16"
same,logFC(D142_ DFO - D142_BAS) LOC399942,ProbeID ILMN_1765701,"-2,67"
same,logFC(D142_ DFO - D142_BAS) ENO2,ProbeID ILMN_1765796,"4,08"

# — patent EP2607478A1, “Phenanthroline treated MSC” (Universiteit Twente, priority 2011, dated 2013)
